Like-named read-outs stand apart in the source and are kept apart here.
How the values were obtained:
[1] = system: Key Broadleaf Weed and Crop Species; assay: Post-emergent Test II herbicidal activity (Table 5); format: in vivo; details: post-emergence, 336 h, post-emergent, 14 days after application; for pest or weed control at 70 g/ha: 70 g ai/ha; for pest or weed control at 140 g/ha: 140 g ai/ha
Procedure, shortened: (§1)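 Test species were raised 7–21 d under greenhouse conditions until reaching the first or second true leaf, sprayed with formulated compound at 187 L/ha, and kept subirrigated to avoid wash-off. Fourteen days later, damage was rated visually on a 0–100% scale against untreated plants.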

[2] = system: Key Grass and Sedge Weeds as well as Grass Crops; assay: Post-emergent Test II herbicidal activity (Table 6); format: in vivo; details: post-emergence, 336 h; for pest or weed control at 70 g/ha: application rate 70 g ai/ha; for pest or weed control at 140 g/ha: application rate 140 g ai/ha
Procedure, shortened: as §1

[3] = ABUTH: velvetleaf (Abutilon theophrasti), read-out: Visual Growth Reduction (%) 14 Days After Application ABUTH
[4] = AMARE: redroot pigweed (Amaranthus retroflexus), read-out: Visual Growth Reduction (%) 14 Days After Application AMARE
[5] = BRSNN: oilseed-rape, canola (Brassica napus), read-out: Visual Growth Reduction (%) 14 Days After Application BRSNN
[6] = CHEAL: lambsquarters (Chenopodium album), read-out: Visual Growth Reduction (%) 14 Days After Application CHEAL
[7] = EPHHL: wild poinsettia (Euphorbia heterophylla), read-out: Visual Growth Reduction (%) 14 Days After Application EPHHL
[8] = HELAN: sunflower (Helianthus annuus), read-out: Visual Growth Reduction (%) 14 Days After Application HELAN
[9] = VIOTR: wild pansy (Viola tricolor), read-out: Visual Growth Reduction (%) 14 Days After Application VIOTR
[10] = CYPES: yellow nutsedge (Cyperus esculentus), read-out: Visual Growth Reduction (%) 14 Days After Application, CYPES
[11] = DIGSA: crabgrass (Digitaria sanguinalis), read-out: Visual Growth Reduction (%) 14 Days After Application, DIGSA
[12] = ECHCG: barnyardgrass (Echinochloa crus-galli), read-out: Visual Growth Reduction (%) 14 Days After Application, ECHCG
[13] = ORYSA: rice (Oryza sativa), read-out: Visual Growth Reduction (%) 14 Days After Application, ORYSA
[14] = SETFA: giant foxtail (Setaria faberi), read-out: Visual Growth Reduction (%) 14 Days After Application, SETFA
[15] = SORVU: grain sorghum (Sorghum vulgare), read-out: Visual Growth Reduction (%) 14 Days After Application, SORVU
[16] = TRZSS (wheat, Triticum aestivum), read-out: Visual Growth Reduction (%) 14 Days After Application, TRZSS
[17] = ZEAMX: maize, corn (Zea mays), read-out: Visual Growth Reduction (%) 14 Days After Application, ZEAMX

With `C=Cc1c(N)nc(-c2ccc(C(F)(F)F)c(F)c2)nc1C(=O)O` [Compound 32, 6-Amino-2-(3-fluoro-4-(trifluoromethyl)phenyl)-5-vinylpyrimidine-4-carboxylic acid] the melting point was 168 to 171 °C, the pest or weed control at 70 g/ha [1, 3] was 60 to 74% and the pest or weed control at 140 g/ha [1, 3] was 60 to 74%. It also gave a pest or weed control at 70 g/ha [1, 4] of 75 to 84%, a pest or weed control at 140 g/ha [1, 4] of 95 to 100% and a pest or weed control at 70 g/ha [1, 5] of 0 to 29%. The pest or weed control at 140 g/ha [1, 5] was 45 to 59%, the pest or weed control at 70 g/ha [1, 6] was 95 to 100% and the pest or weed control at 140 g/ha [1, 6] was 95 to 100%. It also gave a pest or weed control at 70 g/ha [1, 7] of 95 to 100%, a pest or weed control at 140 g/ha [1, 7] of 95 to 100% and a pest or weed control at 70 g/ha [1, 8] of 85 to 94%. It also gave a pest or weed control at 140 g/ha [1, 8] of 85 to 94%, a pest or weed control at 70 g/ha [1, 9] of 0 to 29% and a pest or weed control at 140 g/ha [1, 9] of 0 to 29%. For the same compound, the pest or weed control at 70 g/ha [2, 10] was 0 to 29%, the pest or weed control at 140 g/ha [2, 10] was 45 to 59% and the pest or weed control at 70 g/ha [2, 11] was 0 to 29%. For the same compound, the pest or weed control at 140 g/ha [2, 11] was 0 to 29%, the pest or weed control at 70 g/ha [2, 12] was 75 to 84% and the pest or weed control at 140 g/ha [2, 12] was 75 to 84%. The pest or weed control at 70 g/ha [2, 13] was 0 to 29%, the pest or weed control at 140 g/ha [2, 13] was 0 to 29% and the pest or weed control at 70 g/ha [2, 14] was 0 to 29%. It also gave a pest or weed control at 140 g/ha [2, 14] of 0 to 29%, a pest or weed control at 70 g/ha [2, 15] of 60 to 74% and a pest or weed control at 140 g/ha [2, 15] of 60 to 74%. The pest or weed control at 70 g/ha [2, 16] was 0 to 29%, the pest or weed control at 140 g/ha [2, 16] was 0 to 29% and the pest or weed control at 70 g/ha [2, 17] was 45 to 59%. For the same compound, the pest or weed control at 140 g/ha [2, 17] was 60 to 74%.

Source: patent publication US9113629B2, “4-amino-6-(4-substituted-phenyl)-picolinates and 6-amino-2-(4-substituted-phenyl)-pyrimidine-4-carboxylates and their use as herbicides” (DOW AGROSCIENCES LLC, priority 2013, dated 2015)
